Measured values published in US20240108740A1, “THERAPEUTIC COMPOSITIONS INCLUDING SPN10 AND USES THEREOF” (Stealth BioTherapeutics Inc., priority 2022, published 2024).
Residues, ends and D or L forms follow the SMILES beside them.

Experiments:
[1] = tested on: CD36; assay: Example 4: CD36 mRNA in post-ischemic brain (real time PCR); type: in vivo, mouse; details: treatment at 0 and 6 hours after 30 minute ischemia
Protocol: Wild-type mice will be given saline vehicle (Veh, i.p., n=6), peptide conjugates (5 mg/kg, i.p., n=6), aromatic-cationic peptides (e.g., an equivalent molar dose of aromatic-cationic peptide based on the concentration of the aromatic-cationic peptide administered in the peptide conjugate treatment group), SPN10(s) (e.g., an equivalent molar dose of SPN10 based on the concentration of SPN10 administered in the peptide conjugate treatment group), or SPN10(s) in combination with aromatic-cationic peptides (e.g., an equivalent molar dose of SPN10 based on the concentration of SPN10 administered in the peptide conjugate treatment group and an equivalent molar dose of aromatic-cationic peptide based on the concentration of aromatic-cationic peptide administered in the peptide conjugate treatment group) at 0 and 6 hours after a 30 minute period of ischemia. Levels of CD36 mRNA in post-ischemic brain will be determined using real time PCR.

[2] = tested on: SH-SY5Y cells; assay: Example 27: apoptosis caused by oxidative stress (Hoechst 33342); type: cell-based; details: 0.025 mM t-BHP, 24 hours
Protocol: SH-SY5Y cells will be grown in 96-well plates and treated with t-BHP (0.025 mM) alone or in the presence of peptide conjugates, aromatic-cationic peptides, or SPN10(s) with or without aromatic-cationic peptides at 37° C. for 24 hours. All treatments will be carried out in quadruplicate. Cells will then be stained with 2 mg/mL Hoechst 33342 for 20 minutes, fixed with 4% paraformaldehyde, and imaged using a Zeiss fluorescent microscope (Axiovert 200M) equipped with the Zeiss Acroplan 20× objective. Nuclear morphology will be evaluated using an excitation wavelength of […] and a longpass filter of 400 nm for emission. All images will be processed and analyzed using MetaMorph software (Universal Imaging Corp., West Chester, PA, U.S.A.). Uniformly stained nuclei will be scored as healthy, viable neurons. Cells with condensed or fragmented nuclei will be scored as apoptotic.

[3] = tested on: high-fat fed rats; assay: Example 34: insulin resistance in rats fed a high-fat diet; type: in vivo, rat
Protocol: On the day of testing, food will be removed 10 hours prior to administration of a 2 g/kg glucose solution via oral gavage. Glucose levels will be determined on whole blood samples (Lifescan, Milpitas, CA, U.S.A.). Serum insulin levels will be determined using a rat/mouse ELISA kit (Linco Research, St. Charles, MO, U.S.A.). Fasting data will be used to determine homeostatic model assessment (HOMA)-calculated as fasting insulin (mU/mL)×fasting glucose (mM)/22.5.
To further assess insulin sensitivity, the phosphorylation state of the insulin signaling protein Akt in skeletal muscle will be measured 1) following a 10 hour fast, and 2) 1 hour after receiving an oral glucose load. It is anticipated that in response to glucose ingestion, Akt phosphorylation will increase in skeletal muscle of standard chow-fed controls but will remain essentially unchanged in high-fat fed rats, confirming the presence of insulin resistance at the level of insulin signaling.

[4] = tested on: animal models of ALF; assay: Example 44: animal models of acute liver failure (ALF); details: in vivo
From the text: Suitable animal models of ALF utilize surgical procedures, toxic liver injury, or a combination thereof. See Belanger & Butterworth, Metabolic Brain Disease, 20:409-423 (2005). Peptide conjugates, aromatic-cationic peptides, SPN10(s) with or without aromatic-cationic peptides or control vehicle will be administered prior to or simultaneously with a toxic or surgical insult. Hepatic function will be assessed by measuring serum hepatic enzymes (transaminases, alkaline phosphatase), serum bilirubin, serum ammonia, serum glucose, serum lactate, or serum creatinine. Efficacy of SPN10(s) (with or without aromatic-cationic peptides) or conjugates in preventing ALF will be indicated by a reduction in the occurrence or severity of the ALF as indicated by the above markers, as compared to control subjects.

[5] = tested on: acute myocardial infarction; assay: Infarct size at revascularization in acute myocardial infarction patients; type: in vivo, human; details: IV at the time of reperfusion
From the text: Men and women, 18 years of age or older, who present after the onset of chest pain, and for whom the clinical decision is made to treat with a revascularization procedure (e.g., PCI or thrombolytics) will be eligible for enrollment. […] The diagnosis is made therefore purely on the basis of symptoms, clinical examination and ECG changes. […] The patient often has a history of having experienced angina, but the ECG at the time of the suspected attack may show no abnormality at all. […] Left ventricular and coronary angiography will be performed with the use of standard techniques, just before revascularization. Revascularization will be performed by PCI with the use of direct stenting. […] The primary end point is the size of the infarct as assessed by measurements of cardiac biomarkers. […] Coronary biomarkers will be measured in each patient. For example, the area under the curve (AUC) (expressed in arbitrary units) for creatine kinase and troponin I release (Beckman kit) may be measured in each patient by computerized planimetry. The principal secondary end point is the size of the infarct as measured by the area of delayed hyperenhancement that is seen on cardiac magnetic resonance imaging (MRI), assessed on day 5 after infarction. […] The images are analyzed in short axis slices covering the entire left ventricle. […]

## N=C(N)NCCC[C@H](NC(=O)[C@@H](N)Cc1c[nH]c2ccccc12)C(=O)N[C@@H](Cc1c[nH]c2ccccc12)C(=O)N[C@@H](CCCCN)C(N)=O [SPN10, H-L-Trp-L-Arg-L-Trp-L-Lys-NH2] (H-WRWK-NH2)
[1]
  CD36 mRNA in the ipsilateral brain: significantly reduced
[2]
  apoptosis induced by t-BHP: prevent SH-SY5Y cell apoptosis
[3]; 2 g/kg glucose, six weeks high-fat diet
  blood glucose and insulin responses to the oral glucose challenge: normalize blood glucose and insulin responses
[3]; rat, in vivo
  Akt phosphorylation in skeletal muscle in response to glucose ingestion: increase Akt phosphorylation
  development of insulin resistance (HOMA): suppress the development of insulin resistance
[4]
  reduced liver function after toxic or surgical liver insult: attenuate or prevent these effects
[5]
  infarct size versus placebo: smaller infarct
